Results published in patent US9302999B2, “Substituted triazoles as herbicides” (E. I. DU PONT DE NEMOURS AND COMPANY, priority 2012, dated 2016).

What was measured:
Format in all cases: in vivo
Oilseed Rape = experiment: Test C preemergence: oilseed rape; details: scale 0 (no effect) to 100 (complete control)
[1] = test system: nightshade (eastern black nightshade, Solanum ptycanthum); experiment: Test F pre-/postemergence: nightshade; details: Preemergence
Summary of the method: (§1)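 Preemergence treatment of seeds sown in silt loam soil, and postemergence treatment of plants 2–18 cm tall (1- to 4-leaf stage), with compounds in non-phytotoxic solvent plus surfactant. Greenhouse 14–21 days, then visual rating versus controls on 0–100 scale (100 = complete control).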

[2] = test system: barnyardgrass (Echinochloa crus-galli); experiment: Test F pre-/postemergence: barnyardgrass
Summary of the method: as §1

[3] = test system: field bindweed (Convolvulus arvensis); experiment: Test F pre-/postemergence: field bindweed
Summary of the method: as §1

[4] = test system: crabgrass, Brazil (Brazilian crabgrass, Digitaria horizontalis); experiment: Test F pre-/postemergence: crabgrass, Brazil
Summary of the method: as §1

[5] = test system: goosegrass (Eleusine indica); experiment: Test F pre-/postemergence: goosegrass; details: Preemergence
Summary of the method: as §1

[6] = test system: mustard, wild (wild mustard, Sinapis arvensis); experiment: Test D pre-/postemergence: mustard, wild
Summary of the method: (§2)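 Pre- and postemergence herbicide screen. Soil for pre: silt loam; post medium: peat moss, vermiculite, wetting agent, starter nutrients. Plant stage at post: 1- to 4-leaf. Readout: visual % control, 14–21 days.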

[7] = test system: buckwheat, wild (wild buckwheat, Polygonum convolvulus); experiment: Test D pre-/postemergence: buckwheat, wild
Summary of the method: as §2

[8] = 16 g ai/ha, scale 0 to 100, 0 no effect, 100 complete control
[9] = 31 g ai/ha, scale 0 to 100, 0 no effect, 100 complete control
[10] = Postemergence, 250 g ai/ha, scale 0 to 100
[11] = Postemergence, 16 g ai/ha, scale 0 to 100
[12] = Postemergence, 31 g ai/ha, scale 0 to 100
[13] = Postemergence, 62 g ai/ha, scale 0 to 100
[14] = Postemergence, 125 g ai/ha, scale 0 to 100
[15] = Preemergence, 16 g ai/ha, scale 0 to 100, 0 no effect, 100 complete control
[16] = Preemergence, 31 g ai/ha, scale 0 to 100, 0 no effect, 100 complete control
[17] = Preemergence, 62 g ai/ha, scale 0 to 100
[18] = Preemergence, 125 g ai/ha, scale 0 to 100
[19] = Preemergence, 250 g ai/ha, scale 0 to 100
[20] = Postemergence, 31 g ai/ha, scale 0 to 100 (0 no effect, 100 complete control)
[21] = Postemergence, 62 g ai/ha, scale 0 to 100 (0 no effect, 100 complete control)
[22] = Postemergence, 125 g ai/ha, scale 0 to 100, 0 no effect, 100 complete control
[23] = 8 g ai/ha, scale 0 to 100, 0 no effect, 100 complete control
[24] = Postemergence, 8 g ai/ha, scale 0 to 100
[25] = Preemergence, 8 g ai/ha, scale 0 to 100, 0 no effect, 100 complete control

## FCc1nn(-c2ccc(F)cc2)nc1Oc1ccnc(C(F)(F)F)c1 [Compound 160]
Oilseed Rape; 16 g ai/ha
  Plant response rating, Oilseed Rape: 0

## CCOc1nn(-c2ccc(C(F)(F)F)cc2)nc1Cc1ccnc(C(F)(F)F)c1 [Compound 164, 4-[[5-ethoxy-2-[4-(trifluoromethyl)phenyl]-2H-1,2,3-triazol-4-yl]methyl]-2-(trifluoromethyl)pyridine]
Oilseed Rape; 31 g ai/ha
  Plant response rating, Oilseed Rape: 5

## CCCc1nn(-c2ccc(F)cc2)nc1Oc1ccnc(C(F)(F)F)c1 [Compound 168]
Oilseed Rape; 31 g ai/ha
  Plant response rating, Oilseed Rape: 100

## CCc1nn(-c2ccc(C(F)(F)F)cc2)nc1Oc1ccnc(C(F)(F)F)c1 [Compound 169]
[1]; [8]
  Plant response rating, Nightshade: 0
[1]; [9]
  Plant response rating, Nightshade: 80
[1]; 125 g ai/ha, scale 0 to 100
  Plant response rating, Nightshade: 100
[1]; 250 g ai/ha, scale 0 to 100
  Plant response rating, Nightshade: 100
[2]; [10]
  Plant response rating, Barnyardgrass: 40
[2]; [11]
  Plant response rating, Barnyardgrass: 0
[2]; [12]
  Plant response rating, Barnyardgrass: 0
[2]; [13]
  Plant response rating, Barnyardgrass: 15
[2]; [14]
  Plant response rating, Barnyardgrass: 25
[2]; [15]
  Plant response rating, Barnyardgrass: 0
[2]; [16]
  Plant response rating, Barnyardgrass: 0
[2]; [17]
  Plant response rating, Barnyardgrass: 20
[2]; [18]
  Plant response rating, Barnyardgrass: 60
[2]; [19]
  Plant response rating, Barnyardgrass: 95
[3]; [10]
  Plant response rating, Field Bindweed: 55
[3]; [11]
  Plant response rating, Field Bindweed: 20
[3]; [12]
  Plant response rating, Field Bindweed: 20
[3]; [13]
  Plant response rating, Field Bindweed: 30
[3]; [14]
  Plant response rating, Field Bindweed: 35
[3]; [15]
  Plant response rating, Field Bindweed: 0
[3]; [16]
  Plant response rating, Field Bindweed: 0
[3]; [18]
  Plant response rating, Field Bindweed: 20
[3]; [19]
  Plant response rating, Field Bindweed: 80
[4]; [10]
  Plant response rating, Crabgrass, Brazil: 30
[4]; [11]
  Plant response rating, Crabgrass, Brazil: 20
[4]; [12]
  Plant response rating, Crabgrass, Brazil: 20
[4]; [13]
  Plant response rating, Crabgrass, Brazil: 20
[4]; [14]
  Plant response rating, Crabgrass, Brazil: 20
[4]; [15]
  Plant response rating, Crabgrass, Brazil: 100
[4]; [16]
  Plant response rating, Crabgrass, Brazil: 100
[4]; [17]
  Plant response rating, Crabgrass, Brazil: 100
[4]; [18]
  Plant response rating, Crabgrass, Brazil: 100
[4]; [19]
  Plant response rating, Crabgrass, Brazil: 100
Oilseed Rape; 31 g ai/ha
  Plant response rating, Oilseed Rape: 50
[5]; [8]
  Plant response rating, Goosegrass: 50
[5]; [9]
  Plant response rating, Goosegrass: 95
[5]; 62 g ai/ha, scale 0 to 100
  Plant response rating, Goosegrass: 100
[5]; 125 g ai/ha, scale 0 to 100
  Plant response rating, Goosegrass: 100
[5]; 250 g ai/ha, scale 0 to 100
  Plant response rating, Goosegrass: 100

## CCCc1nn(-c2ccc(C(F)(F)F)cc2)nc1Oc1ccnc(C(F)(F)F)c1 [Compound 170]
Oilseed Rape; 31 g ai/ha
  Plant response rating, Oilseed Rape: 95

## CCCc1nn(-c2ccc(F)cc2F)nc1Oc1ccnc(C(F)(F)F)c1 [Compound 179]
Oilseed Rape; 31 g ai/ha
  Plant response rating, Oilseed Rape: 80

## CCc1nn(-c2ccc(C(F)(F)F)c(F)c2)nc1Oc1ccnc(C(F)(F)F)c1 [Compound 183]
Oilseed Rape; 31 g ai/ha
  Plant response rating, Oilseed Rape: 60

## CCOc1nn(-c2ccc(Cl)cc2)nc1Cc1ccnc(C(F)(F)F)c1 [Compound 188]
Oilseed Rape; 31 g ai/ha
  Plant response rating, Oilseed Rape: 20

## CCOc1nn(-c2ccc(F)cc2)nc1Cc1ccnc(C(F)(F)F)c1 [Compound 196, 4-[[5-ethoxy-2-(4-fluorophenyl)-2H-1,2,3-triazol-4-yl]methyl]-2-(trifluoromethyl)pyridine]
[6]; [20]
  Plant response rating: Mustard, Wild: 100
[6]; [21]
  Plant response rating: Mustard, Wild: 100
[6]; [22]
  Plant response rating: Mustard, Wild: 100
[6]; [11]
  Plant response rating, Mustard, Wild: 100
[6]; [15]
  Plant response rating, Mustard, Wild: 35
[6]; [16]
  Plant response rating, Mustard, Wild: 95
[6]; [17]
  Plant response rating, Mustard, Wild: 100
[6]; [18]
  Plant response rating, Mustard, Wild: 100
[1]; [23]
  Plant response rating, Nightshade: 95
[1]; [8]
  Plant response rating, Nightshade: 95
[1]; [9]
  Plant response rating, Nightshade: 95
[1]; 125 g ai/ha, scale 0 to 100
  Plant response rating, Nightshade: 100
[7]; [20]
  Plant response rating: Buckwheat, Wild: 70
[7]; [21]
  Plant response rating: Buckwheat, Wild: 90
[7]; [22]
  Plant response rating: Buckwheat, Wild: 95
[7]; [11]
  Plant response rating, Buckwheat, Wild: 50
[7]; [15]
  Plant response rating, Buckwheat, Wild: 60
[7]; [16]
  Plant response rating, Buckwheat, Wild: 45
[7]; [17]
  Plant response rating, Buckwheat, Wild: 70
[7]; [18]
  Plant response rating, Buckwheat, Wild: 95
[2]; [24]
  Plant response rating, Barnyardgrass: 30
[2]; [11]
  Plant response rating, Barnyardgrass: 40
[2]; [12]
  Plant response rating, Barnyardgrass: 60
[2]; [13]
  Plant response rating, Barnyardgrass: 60
[2]; [14]
  Plant response rating, Barnyardgrass: 90
[2]; [25]
  Plant response rating, Barnyardgrass: 0
[2]; [15]
  Plant response rating, Barnyardgrass: 25
[2]; [16]
  Plant response rating, Barnyardgrass: 40
[2]; [17]
  Plant response rating, Barnyardgrass: 70
[2]; [18]
  Plant response rating, Barnyardgrass: 100
[3]; [24]
  Plant response rating, Field Bindweed: 50
[3]; [11]
  Plant response rating, Field Bindweed: 60
[3]; [12]
  Plant response rating, Field Bindweed: 70
[3]; [13]
  Plant response rating, Field Bindweed: 75
[3]; [14]
  Plant response rating, Field Bindweed: 75
[3]; [25]
  Plant response rating, Field Bindweed: 0
[3]; [15]
  Plant response rating, Field Bindweed: 0
[3]; [16]
  Plant response rating, Field Bindweed: 25
[3]; [18]
  Plant response rating, Field Bindweed: 65
[4]; [24]
  Plant response rating, Crabgrass, Brazil: 60
[4]; [11]
  Plant response rating, Crabgrass, Brazil: 75
[4]; [12]
  Plant response rating, Crabgrass, Brazil: 85
[4]; [13]
  Plant response rating, Crabgrass, Brazil: 95
[4]; [14]
  Plant response rating, Crabgrass, Brazil: 95
[5]; [23]
  Plant response rating, Goosegrass: 40
[5]; [8]
  Plant response rating, Goosegrass: 60
[5]; [9]
  Plant response rating, Goosegrass: 75
[5]; 62 g ai/ha, scale 0 to 100
  Plant response rating, Goosegrass: 100
[5]; 125 g ai/ha, scale 0 to 100
  Plant response rating, Goosegrass: 100
